Measurements as given in US7638540B2, “Benzofuran compound and medicinal composition containing the same” (The New Industry Research Organization, priority 2003, dated 2009).

Compound | melting point [°C]
Cc1oncc1C(=O)Nc1c(C(C)O)oc2ccc(Br)cc12 (stereo not drawn) [Example 70, N-[5-bromo-2-(1-hydroxyethyl)benzofuran-3-yl]-5-methylisoxazole-4-carboxamide] | 125.2 to 128.8
COc1ccc(CCNC(=O)/C=C(\C)c2cc3cccc(OC(c4ccccc4)c4ccccc4)c3o2)cc1OC [Example 47, (E)-3-(7-benzhydryloxybenzofuran-2-yl)-N-[2-(3,4-dimethoxyphenyl)ethyl]-2-butenamide] | 70.8 to 73.5
C/C(O)=C(\C#N)C(=O)Nc1c(C(=O)/C=C/c2ccccc2)oc2ccc(Br)cc12 [Example 174, 2-cyano-3-hydroxy-(Z)-2-butenoic acid [5-bromo-2-((E)-3-phenylacryloyl)benzofuran-3-yl]amide] | 261.5 to 262.8
CCc1c(/C(C)=C/C(=O)NCCc2ccc(OC)c(OC)c2)oc2ccccc12 [Example 167, 3-(3-ethylbenzofuran-2-yl)-2-butenoic acid [2-(3,4-dimethoxyphenyl)ethyl]amide] | 131 to 135
C/C=C/C(=O)Nc1c(C(C)=O)oc2ccc(Br)cc12 [Example 123, (E)-N-(2-acetyl-5-bromobenzofuran-3-yl)-2-butenamide] | 127.8 to 130
COc1ccc(/C=C/C(=O)c2oc3ccc(Br)cc3c2NC(=O)CCCl)cc1 [Example 195, (E)-N-{5-bromo-2-[3-(4-methoxyphenyl)-acryloyl]benzofuran-3-yl}-3-chloropropionamide] | 170.7 to 172
CC(=O)OC(C)c1oc2ccccc2c1NC(=O)c1cnoc1C (stereo not drawn) [Example 76, 1-{3-[(5-methylisoxazole-4-carbonyl)amino]benzofuran-2-yl}ethyl acetate] | 130.2 to 132.9
COc1ccc(CCNC(=O)/C=C(\C)c2cc3cccc(OC(C)c4ccccc4)c3o2)cc1OC (stereo not drawn) [Example 164, (E)-3-[7-(1-phenylethoxy)benzofuran-2-yl]-2-butenoic acid [2-(3,4-dimethoxyphenyl)ethyl]amide] | 109 to 113
COc1cccc(NC(=O)/C=C(\C)c2cc3c(Br)ccc(OCCN(C)C)c3o2)c1 [Example 39, (E)-3-[4-bromo-7-(2-dimethylaminoethoxy)benzofuran-2-yl]-N-(3-methoxyphenyl)-2-butenamide] | 176.4 to 181.5
COc1ccc(NC(=O)/C=C(/C)c2cc3cccc(OC(c4ccccc4)c4ccccc4)c3o2)cc1OC [Example 43, (Z)-3-(7-benzhydryloxybenzofuran-2-yl)-N-(3,4-dimethoxyphenyl)-2-butenamide] | 93.9 to 94.5
O=C(/C=C/c1ccccc1)Nc1c(C(=O)c2ccc(Cl)cc2)oc2ccc(Br)cc12 [Example 113, (E)-N-[5-bromo-2-(4-chlorobenzoyl)benzofuran-3-yl]-3-phenylacrylamide] | 171.2 to 171.8
N#Cc1oc2ccc(Br)cc2c1NC(=O)/C=C/c1ccccc1 [Example 122, (E)-N-(5-bromo-2-cyanobenzofuran-3-yl)-3-phenylacrylamide] | 240.2 to 242
C/C(O)=C(\C#N)C(=O)Nc1c(C(N)=O)oc2ccccc12 [Example 101, (Z)-3-(2-cyano-3-hydroxy-2-butenoylamino)benzofurane-2-carboxamide] | 265
CCOC(=O)CCCOc1cccc2cc(/C(Cl)=C/C=O)oc12 [Example 140, Ethyl 4-[2-(1-chloro-3-oxopropenyl)benzofuran-7-yloxy]-butyrate] | 67 to 69.5
Cc1oc2ccc(Br)cc2c1/C(Cl)=C/C=O [Example 151, (Z)-3-(5-bromo-2-methylbenzofuran-3-yl)-3-chloropropenal] | 99.8 to 104
C/C=C/C(=O)Nc1c(Cl)oc2c(OC)cccc12 [Example 187, (E)-2-butenoic acid (2-chloro-7-methoxybenzofuran-3-yl)amide] | 216 to 217
CCN(CC)C(=O)/C=C(\C)c1ccc2oc(C(=O)Nc3cccc(OC)c3)c(N)c2c1 [Example 158, (E)-3-amino-5-(2-diethylcarbamoyl-1-methylvinyl)benzofurane-2-carboxylic acid (3-methoxyphenyl)amide] | 155 to 157
C/C=C/C(=O)Nc1c(C(C)=O)oc2c(OC)cccc12 [Example 185, (E)-2-butenoic acid (2-acetyl-7-methoxybenzofuran-3-yl)amide] | 165.7 to 168
Cc1oncc1C(=O)Nc1c(C#N)oc2ccccc12 [Example 86, N-(2-cyanobenzofuran-3-yl)-5-methylisoxazole-4-carboxamide] | 227.3 to 230.4
COc1cccc2c(NC(=O)CCCl)c(C(C)=O)oc12 [Example 204, N-(2-acetyl-7-methoxybenzofuran-3-yl)-3-chloropropionamide] | 169.1 to 170.2
CCOC(=O)/C=C/C=C(\Cl)c1cc2cccc(OC)c2o1 [Example 62, Ethyl (2E,4Z)-5-chloro-5-(7-methoxybenzofuran-2-yl)penta-2,4-dienoate] | 113.9 to 117.6

Compound | melting point [°C]
CCNS(=O)(=O)c1ccc(OCCCC(=O)OCC)c2oc(C(C)NC(=O)c3cnoc3C)cc12 (stereo not drawn) [Example 125, Ethyl 4-(4-ethylsulfamoyl-2-{1-[(5-methylisoxazole-4-carbonyl)amino]ethyl}benzofuran-7-yloxy)butyrate] | 88.1 to 90
CC(=O)c1oc2ccc(C#N)cc2c1NC(=O)/C(C#N)=C(/C)O [Example 93, (Z)-N-(2-acetyl-5-cyanobenzofuran-3-yl)-2-cyano-3-hydroxy-2-butenamide] | 216 to 218
CCN(CC)C(=O)/C=C(\C)c1ccc2oc(C(C)=O)c(NC(=O)c3cnoc3C)c2c1 [Example 74, (E)-N-[2-acetyl-5-(2-diethylcarbamoyl-1-methylvinyl)benzofuran-3-yl]-5-methylisoxazole-4-carboxamide] | 170.3 to 174.1
CCN(CC)C(=O)/C=C(\C)c1ccc(OCCCSc2ccc(Cl)cc2)c2oc(C(C)=O)cc12 [Example 139, (E)-3-{2-acetyl-7-(3-(4-chlorophenylsulfanyl)propoxy)benzofuran-4-yl}-2-butenoic acid diethylamide] | 110.5 to 113.5
C/C=C/C(=O)Nc1c(C(=O)c2ccc(Cl)cc2)oc2ccc(Br)cc12 [Example 115, (E)-N-[5-bromo-2-(4-chlorobenzoyl)benzofuran-3-yl]-2-butenamide] | 210.4 to 212.8
CN(C)/C=C/C(=O)c1oc2ccc(Br)cc2c1NC(=O)/C=C/c1ccccc1 [Example 176, (E,E)-N-[5-bromo-2-(3-dimethylaminoacryloyl)-benzofuran-3-yl]-3-phenylacrylamide] | 248
CCOC(=O)c1oc2ccccc2c1NC(=O)/C(C#N)=C(/C)O [Example 107, Ethyl (Z)-3-(2-cyano-3-hydroxy-2-butenoylamino)benzofurane-2-carboxylate] | 147.5 to 150.1
C/C(O)=C(\C#N)C(=O)NC(C)c1cc2cccc(OCCCC(=O)O)c2o1 (stereo not drawn) [Example 126, (Z)-4-{2-[1-(2-cyano-3-hydroxy-2-butenoylamino)ethyl]benzofuran-7-yloxy}butyric acid] | 147.9 to 148.6
COc1ccc(NC(=O)/C=C(\C)c2cc3cccc(OC(c4ccccc4)c4ccccc4)c3o2)cc1 [Example 41, (E)-3-(7-benzhydryloxybenzofuran-2-yl)-N-(4-methoxyphenyl)-2-butenamide] | 191.8 to 193.6
COc1ccc(Br)c2c(NC(C)=O)c(C(C)=O)oc12 [Example 211, N-(2-acetyl-4-bromo-7-methoxybenzofuran-3-yl)acetamide] | 235.3 to 237.8
CC(=O)NC(C)c1cc2ccccc2o1 (stereo not drawn) [Example 190, N-(1-benzofuran-2-ylethyl)acetamide] | 128 to 130
COc1cccc2cc(/C(Cl)=C/C=C/C#N)oc12 [Example 61, (2E,4Z)-5-chloro-5-(7-methoxybenzofuran-2-yl)penta-2,4-dienenitrile] | 98.9 to 101.2
CCN(CC)C(=O)/C=C(\C)c1ccc(OC(c2ccccc2)c2ccccc2)c2oc(C(C)=O)cc12 [Example 4, (E)-3-(2-acetyl-7-benzhydryloxybenzofuran-4-yl)-N,N-diethyl-2-butenamide] | 163.3 to 165.2
CCN(CC)C(=O)/C=C(\C)c1ccc2oc(C(=O)c3ccc(C#N)cc3)c(NC(=O)c3cnoc3C)c2c1 [Example 89, (E)-N-[2-(4-cyanobenzoyl)-5-(2-diethylcarbamoyl-1-methylvinyl)benzofuran-3-yl]-5-methylisoxazole-4-carboxamide] | 202.6 to 205.5
COc1ccc(NC(=O)c2cnoc2C)c2cc(C(C)=O)oc12 [Example 111, N-(2-acetyl-7-methoxybenzofuran-4-yl)-5-methylisoxazole-4-carboxamide] | 201.8 to 205.9
COc1ccc(CCNC(=O)/C=C(\C)c2ccc3oc(C(C)=O)cc3c2)cc1OC [Example 26, (E)-3-(2-acetylbenzofuran-5-yl)-N-[2-(3,4-dimethoxyphenyl)ethyl]-2-butenamide] | 112.7 to 114.3
CC(=O)c1oc2ccc(/C(C)=C/C(=O)N3CCOCC3)cc2c1NC(=O)/C(C#N)=C(/C)O [Example 108, N-[2-acetyl-5-(1-methyl-3-morpholino-3-oxo-(E)-1-propenyl)benzofuran-3-yl]-2-cyano-3-hydroxy-(Z)-2-butenamide] | 206.9 to 208.6
COc1cccc2cc(C(C)NC(C)=O)oc12 (stereo not drawn) [Example 191, N-[1-(7-methoxybenzofuran-2-yl)ethyl]acetamide] | 90 to 91.8
COc1ccc(NC(=O)/C(C#N)=C(/C)O)c2cc(C(C)=O)oc12 [Example 112, (Z)-N-(2-acetyl-7-methoxybenzofuran-4-yl)-2-cyano-3-hydroxy-2-butenamide] | 243.4 to 246.4
CC(=O)c1cc2cc(/C(C)=C/C(=O)O)ccc2o1 [Example 134, (E)-3-(2-acetylbenzofuran-5-yl)-2-butenoic acid] | 220.4 to 223.5
COc1ccc2c(NC(=O)c3cnoc3C)c(C(C)=O)oc2c1 [Example 83, N-(2-acetyl-6-methoxybenzofuran-3-yl)-5-methylisoxazole-4-carboxamide] | 168.2 to 170.1
